How the values were obtained:
[1] = target: T1, Dual specificity tyrosine-phosphorylation-regulated kinase 2 (Homo sapiens) (UniProt Q92630); assay: Selectivity interaction (KinomeScan (DiscoverX)) EUB0001049a DYRK2; details: at 1 µM
T1 sequence (whole entry): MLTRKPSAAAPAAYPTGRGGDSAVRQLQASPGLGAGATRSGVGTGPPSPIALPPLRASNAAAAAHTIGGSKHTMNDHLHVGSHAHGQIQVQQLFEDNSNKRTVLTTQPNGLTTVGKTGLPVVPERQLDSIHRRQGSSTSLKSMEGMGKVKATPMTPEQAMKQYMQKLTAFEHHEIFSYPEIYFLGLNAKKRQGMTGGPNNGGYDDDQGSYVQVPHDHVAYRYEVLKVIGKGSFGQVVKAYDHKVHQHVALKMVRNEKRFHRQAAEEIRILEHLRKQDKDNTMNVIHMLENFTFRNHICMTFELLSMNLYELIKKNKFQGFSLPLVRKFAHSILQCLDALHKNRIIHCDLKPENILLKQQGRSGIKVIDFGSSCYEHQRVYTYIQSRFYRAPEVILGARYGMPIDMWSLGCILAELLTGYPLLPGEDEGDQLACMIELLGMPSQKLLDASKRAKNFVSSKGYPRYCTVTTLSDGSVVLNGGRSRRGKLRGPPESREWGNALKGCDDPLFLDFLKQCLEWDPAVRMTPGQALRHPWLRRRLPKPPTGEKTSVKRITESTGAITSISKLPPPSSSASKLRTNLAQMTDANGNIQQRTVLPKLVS

[2] = target: T2, Homeodomain-interacting protein kinase 4 (Homo sapiens) (UniProt Q8NE63); assay: Selectivity interaction (KinomeScan (DiscoverX)) EUB0000618a HIPK4; details: at 10 µM
T2 sequence (whole entry): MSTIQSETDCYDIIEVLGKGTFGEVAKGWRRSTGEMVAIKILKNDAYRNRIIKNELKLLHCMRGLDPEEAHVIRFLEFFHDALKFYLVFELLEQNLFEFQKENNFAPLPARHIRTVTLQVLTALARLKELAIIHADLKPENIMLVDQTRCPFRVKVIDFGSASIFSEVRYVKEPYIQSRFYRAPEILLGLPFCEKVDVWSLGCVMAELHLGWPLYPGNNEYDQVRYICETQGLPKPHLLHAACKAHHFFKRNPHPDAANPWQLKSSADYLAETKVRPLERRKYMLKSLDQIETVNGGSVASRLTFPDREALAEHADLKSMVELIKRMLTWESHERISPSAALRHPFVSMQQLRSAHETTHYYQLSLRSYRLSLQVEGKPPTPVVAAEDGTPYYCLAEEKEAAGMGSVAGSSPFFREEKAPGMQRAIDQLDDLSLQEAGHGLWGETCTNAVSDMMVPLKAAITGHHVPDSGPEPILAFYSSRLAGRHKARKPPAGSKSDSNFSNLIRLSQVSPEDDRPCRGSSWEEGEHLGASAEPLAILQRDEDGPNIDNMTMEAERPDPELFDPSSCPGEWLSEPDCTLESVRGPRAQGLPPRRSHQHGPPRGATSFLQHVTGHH

[3] = target: T3, Mitogen-activated protein kinase kinase kinase 15 (Homo sapiens) (UniProt Q6ZN16); assay: Selectivity interaction (KinomeScan (DiscoverX)) EUB0000655a MAP3K15; details: at 10 µM
T3 sequence (whole entry): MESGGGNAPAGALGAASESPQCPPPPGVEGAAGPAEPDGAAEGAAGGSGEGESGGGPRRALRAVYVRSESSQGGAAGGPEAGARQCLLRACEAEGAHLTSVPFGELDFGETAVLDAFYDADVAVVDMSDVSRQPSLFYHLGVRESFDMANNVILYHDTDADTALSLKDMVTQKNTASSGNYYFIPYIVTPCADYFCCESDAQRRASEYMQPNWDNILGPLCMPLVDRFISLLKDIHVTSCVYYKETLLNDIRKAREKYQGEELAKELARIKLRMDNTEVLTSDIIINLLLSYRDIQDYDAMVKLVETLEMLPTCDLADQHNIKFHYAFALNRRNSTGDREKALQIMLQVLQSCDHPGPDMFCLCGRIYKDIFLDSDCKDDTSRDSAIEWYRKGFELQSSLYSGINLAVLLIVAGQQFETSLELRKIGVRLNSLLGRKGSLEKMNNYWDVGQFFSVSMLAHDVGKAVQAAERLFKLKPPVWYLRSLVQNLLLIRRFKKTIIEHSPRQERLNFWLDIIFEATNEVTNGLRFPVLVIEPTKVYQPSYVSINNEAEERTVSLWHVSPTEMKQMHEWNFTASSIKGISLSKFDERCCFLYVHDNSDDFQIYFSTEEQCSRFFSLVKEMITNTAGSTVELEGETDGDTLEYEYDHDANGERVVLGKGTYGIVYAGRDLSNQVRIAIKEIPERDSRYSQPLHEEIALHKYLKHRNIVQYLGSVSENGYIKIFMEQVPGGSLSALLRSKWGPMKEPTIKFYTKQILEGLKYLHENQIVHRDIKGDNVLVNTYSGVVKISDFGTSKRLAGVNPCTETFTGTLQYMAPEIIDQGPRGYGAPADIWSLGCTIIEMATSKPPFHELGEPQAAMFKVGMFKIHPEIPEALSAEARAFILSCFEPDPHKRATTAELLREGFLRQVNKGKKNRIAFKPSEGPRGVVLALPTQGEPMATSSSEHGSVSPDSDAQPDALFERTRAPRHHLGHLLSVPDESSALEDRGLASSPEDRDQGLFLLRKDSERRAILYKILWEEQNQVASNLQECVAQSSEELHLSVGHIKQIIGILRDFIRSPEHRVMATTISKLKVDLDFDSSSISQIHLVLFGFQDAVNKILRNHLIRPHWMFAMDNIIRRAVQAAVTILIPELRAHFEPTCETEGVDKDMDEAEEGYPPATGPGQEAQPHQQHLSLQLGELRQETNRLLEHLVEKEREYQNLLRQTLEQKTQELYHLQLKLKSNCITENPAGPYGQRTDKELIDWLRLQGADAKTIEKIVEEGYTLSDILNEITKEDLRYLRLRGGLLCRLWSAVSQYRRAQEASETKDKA

Structure (SMILES): COc1cc(Nc2nc(C)cc(-c3cnn4nc(OC)ccc34)n2)cc(C(F)(F)F)c1
- % of control [1]: 79%

Structure (SMILES): O[C@H]1CC[C@H](Nc2ncc3nc(Nc4c(F)cc(F)cc4F)n([C@H]4CCOC4)c3n2)CC1
- % of control [2]: 98%

Structure (SMILES): CN(C)CCOc1ccc(-c2nc(-c3ccncc3)c(-c3ccc4c(c3)CC/C4=N\O)[nH]2)cc1
- % of control [3]: 100%

Source: ChEMBL document CHEMBL5465560, “Selectivity Literature for EUbOPEN Chemogenomic Library” (2024)
